From patent US20230382925A1, “MODULATORS OF CYSTIC FIBROSIS TRANSMEMBRANE CONDUCTANCE REGULATOR” (VERTEX PHARMACEUTICALS INCORPORATED, priority 2020, published 2023) come the findings set out here.

Like-named read-outs stand apart in the source and are kept apart here.

The assay deals with CFTR (Homo sapiens, UniProt P13569). The assay can be described thus: Membrane Potential Dye, Enteroid Assay B. Type of assay: cell-based. The procedure: Base medium (ADF+++) consisted of Advanced […], 2 mM Glutamax, 10 mM HEPES, 1 μg/mL penicillin/streptomycin.
Intestinal enteroid maintenance medium (IEMMN) consisted of ADF+++, 1× B27 supplement, 1× N2 supplement, 1.25 mM N-acetyl cysteine, 10 mM Nicotinamide, 50 ng/mL hEGF, 10 nM Gastrin, 1 μg/mL hR-spondin-1, 100 ng/mL hNoggin, TGF-b type 1 inhibitor A-83-01, 100 μg/mL Primocin, 10 μM P38 MAPK inhibitor SB202190.
Bath 1 Buffer consisted of 1 mM MgCl2, 160 mM NaCl, 4.5 mM KCl, 10 mM HEPES, 10 mM Glucose, 2 mM CaCl2).
Chloride Free Buffer consisted of 1 mM Magnesium Gluconate, 2 mM Calcium Gluconate, 4.5 mM Potassium Gluconate, 160 mM Sodium Gluconate, 10 mM HEPES, 10 mM Glucose.
Bath 1 Dye Solution consisted of Bath 1 Buffer, 0.04% Pluronic F127, 20 μM Methyl Oxonol, 30 μM CaCCinh-A01, 30 μM Chicago Sky Blue.
Chloride Free Dye Solution consisted of Chloride Free Buffer, 0.04% Pluronic F127, 20 μM Methyl Oxonol, 30 μM CaCCinh-A01, 30 μM Chicago Sky Blue.
Chloride Free Dye Stimulation Solution consisted of Chloride Free Dye Solution, 10 μM forskolin, 100 μM IBMX, and 300 nM Compound III.
Human intestinal epithelial enteroid cells were obtained from the Hubrecht Institute for Developmental Biology and Stem Cell Research, Utrecht, The Netherlands and expanded in T-Flasks as previously described (Dekkers J F, Wiegerinck C L, de Jonge H R, Bronsveld I, Janssens H M, de Winter-de Groot K M, Brandsma A M, de Jong N W M, Bijvelds M J C, Scholte B J, Nieuwenhuis E E S, van den Brink S, Clevers H, van der Ent C K, Middendorp S and M Beekman J M. A functional CFTR assay using primary cystic fibrosis intestinal organoids. Nat Med. 2013 July; 19(7):939-45.).
3. Enteroid Cell Harvesting and Seeding
Cells were recovered in cell recovery solution, collected by centrifugation at 650 rpm for 5 min at 4° C., resuspended in TrypLE and incubated for 5 min at 37° C. Cells were then collected by centrifugation at 650 rpm for 5 min at 4° C. and resuspended in IEMM containing 10 μM ROCK inhibitor (RI). The cell suspension was passed through a 40 μm cell strainer and resuspended at 1×10^6 cells/mL in IEMM containing 10 μM RI. Cells were seeded at 5000 cells/well into multi-well plates and incubated for overnight at 37° C., 95% humidity and 5% CO2 prior to assay.
5. Membrane Potential Dye, Enteroid Assay B
Enteroid cells were incubated with test compound in IEMM for 18-24 hours at 37° C., 95% humidity and 5% CO2. […] Briefly, cells were washed 5 times in Bath 1 Buffer. Bath 1 Dye Solution was added and the cells were incubated for 25 min at room temperature. Following dye incubation, cells were washed 3 times in Chloride Free Dye Solution. Chloride transport was initiated by addition of Chloride Free Dye Stimulation Solution and the fluorescence signal was read for 15 min. […] Chloride transport was then expressed as a percentage of the chloride transport following treatment with 1 μM (14S)-8-[3-(2-{Dispiro[2.0.2.1]heptan-7-yl}ethoxy)-1H-pyrazol-1-yl]-12,12-dimethyl-2λ^6-thia-3,9,11,18,23-pentaazatetracyclo[17.3.1.111,14.05,10]tetracosa-1(22),5,7,9,19(23),20-hexaene-2,2,4-trione, 3 μM (R)-1-(2,2-difluorobenzo[d][1,3]dioxol-5-yl)-N-(1-(2,3-dihydroxypropyl)-6-fluoro-2-(1-hydroxy-2-methylpropan-2-yl)-1H-indol-5-yl)cyclopropanecarboxamide and 300 nM acute N-[2,4-bis(1,1-dimethylethyl)-5-hydroxyphenyl]-1,4-dihydro-4-oxoquinoline-3-carboxamide triple combination control (% Activity).

Setting [1] is: Table 10, read-out: Ent. B EC50.

CFTR, sequence (P13569 with tags, fused parts or gaps DEL508-508): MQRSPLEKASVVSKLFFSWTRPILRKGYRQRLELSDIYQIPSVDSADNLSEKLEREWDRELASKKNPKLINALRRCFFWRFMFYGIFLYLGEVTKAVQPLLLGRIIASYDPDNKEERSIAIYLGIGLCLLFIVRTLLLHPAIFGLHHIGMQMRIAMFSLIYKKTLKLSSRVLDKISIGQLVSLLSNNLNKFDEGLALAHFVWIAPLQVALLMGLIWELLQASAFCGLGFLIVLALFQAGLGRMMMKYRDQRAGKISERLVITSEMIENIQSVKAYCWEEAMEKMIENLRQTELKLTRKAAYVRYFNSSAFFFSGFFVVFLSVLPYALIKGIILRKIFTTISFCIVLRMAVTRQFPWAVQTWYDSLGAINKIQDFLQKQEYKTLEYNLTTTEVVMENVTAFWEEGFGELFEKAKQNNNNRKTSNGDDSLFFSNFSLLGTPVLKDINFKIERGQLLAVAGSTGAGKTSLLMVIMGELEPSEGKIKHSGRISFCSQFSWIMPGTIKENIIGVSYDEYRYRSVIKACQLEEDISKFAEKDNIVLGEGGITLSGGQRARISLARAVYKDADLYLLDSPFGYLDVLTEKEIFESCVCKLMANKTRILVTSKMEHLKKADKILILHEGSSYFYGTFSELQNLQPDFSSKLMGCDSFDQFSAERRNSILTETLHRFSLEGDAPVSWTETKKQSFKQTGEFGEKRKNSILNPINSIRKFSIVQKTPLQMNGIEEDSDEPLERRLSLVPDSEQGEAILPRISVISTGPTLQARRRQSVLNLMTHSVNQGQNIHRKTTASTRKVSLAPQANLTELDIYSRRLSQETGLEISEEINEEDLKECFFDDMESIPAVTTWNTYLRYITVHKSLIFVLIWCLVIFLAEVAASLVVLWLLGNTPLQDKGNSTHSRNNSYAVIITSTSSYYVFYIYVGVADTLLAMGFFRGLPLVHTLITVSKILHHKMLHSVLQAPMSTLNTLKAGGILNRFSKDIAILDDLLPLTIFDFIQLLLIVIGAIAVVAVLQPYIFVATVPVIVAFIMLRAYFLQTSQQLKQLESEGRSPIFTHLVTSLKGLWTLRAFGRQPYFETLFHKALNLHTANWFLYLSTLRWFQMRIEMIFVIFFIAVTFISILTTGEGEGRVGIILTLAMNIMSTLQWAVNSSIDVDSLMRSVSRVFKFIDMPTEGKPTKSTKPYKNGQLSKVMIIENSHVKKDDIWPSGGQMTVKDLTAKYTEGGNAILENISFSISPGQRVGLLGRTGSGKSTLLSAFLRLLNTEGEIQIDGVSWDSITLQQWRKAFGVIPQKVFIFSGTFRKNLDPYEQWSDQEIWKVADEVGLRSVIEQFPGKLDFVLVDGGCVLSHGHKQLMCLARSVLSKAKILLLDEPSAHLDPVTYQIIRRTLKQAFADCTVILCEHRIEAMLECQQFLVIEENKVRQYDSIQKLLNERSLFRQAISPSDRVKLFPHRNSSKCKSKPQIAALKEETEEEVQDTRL

Consider `Cc1ccc(F)c(C)c1-c1cc2nc(n1)NS(=O)(=O)c1cccc(c1)C(=O)N(C1CC3(CC3)C1)[C@H](CC(C)C)CO2` [Compound 424], for which the “Ent. B Max Activity (%)” value (Table 9) is recorded as “+++ (+++ is >60%)”. The half-maximal effective concentration (EC50) (Table 9, read-out: Ent. B EC50) is less than 1000 nM.

As for `CN[C@H]1CC2(C1)C[C@H](N1C(=O)c3cccc(c3)S(=O)(=O)Nc3nc(cc(-c4c(C)cccc4C)n3)OC[C@H]1CC(C)C)C2` (some centres unmarked) [Compound 281], where the note is “Table 9”, the “Ent. B Max Activity (%)” value is reported as “+++ (+++ is >60%)”. Moreover, the half-maximal effective concentration (EC50) (Table 9, read-out: Ent. B EC50) was less than 1000 nM.

As to `Cc1cccc(C)c1-c1cc2nc(n1)NS(=O)(=O)c1cccc(c1)C(=O)N([C@H]1C[C@@H](CN(C)C)C1)[C@H](CC(C)C)CO2` (single isomer, unassigned) [Compound 105], under “Table 9”, the “Ent. B Max Activity (%)” value is on record as “+++ (+++ is >60%)”. Further, the EC50 (Table 9, read-out: Ent. B EC50) is less than 1000 nM.

Regarding `COCCNC1CC2(C1)CC(N1C(=O)c3cccc(c3)S(=O)(=O)Nc3nc(cc(-c4c(C)cccc4C)n3)OC[C@H]1CC(C)C)C2` (stereo in doubt) [Compound 288], the “Ent. B Max Activity (%)” value (Table 9) is “+++ (+++ is >60%)”. Where the note is “Table 9, read-out: Ent. B EC50”, the half-maximal effective concentration (EC50) was less than 1000 nM.

With `Cc1cccc(C)c1-c1cc2nc(n1)NS(=O)(=O)c1cccc(c1)C(=O)N([C@H]1C[C@@H](NC(=O)OC(C)(C)C)C1)[C@H](CC1(C(F)(F)F)CC1)CO2` (single isomer, unassigned) [Compound 54], the “Ent. B Max Activity (%)” value (Table 9) is reported as “+++ (+++ is >60%)”. Moreover, the EC50 (Table 9, read-out: Ent. B EC50) was less than 1000 nM.

As for `CN[C@H]1C[C@]2(C1)C[C@H](N1C(=O)c3cccc(c3)S(=O)(=O)Nc3nc(cc(-c4c(C)cccc4C)n3)OC[C@H]1CC1(C(F)(F)F)CC1)C2` (some centres unmarked) [Compound 268], the “Ent. B Max Activity (%)” value (Table 9) was “+++ (+++ is >60%)”. Also, the EC50 (Table 9, read-out: Ent. B EC50) was less than 1000 nM.

Regarding `Cc1cccc(C)c1-c1cc2nc(n1)NS(=O)(=O)c1cccc(c1)C(=O)N(C1CC3(C1)CC(O)(CC(C)C)C3)[C@H](CC(C)(C)C)CO2` (stereo in doubt) [Compound 404], the “Ent. B Max Activity (%)” value (Table 10) was “+++ (+++ is >60%)”. Moreover, the concentration giving a half-maximal response (EC50) under setting [1] is less than 1000 nM.

As to `CCOC(=O)NC1CC2(C1)CC(N1C(=O)c3cccc(c3)S(=O)(=O)Nc3nc(cc(-c4c(C)cccc4C)n3)OC[C@H]1CC(C)(C)C)C2` (some centres unmarked) [Compound 357], the “Ent. B Max Activity (%)” value (Table 10) is reported as “+++ (+++ is >60%)”. Also, the EC50 under setting [1] is less than 1000 nM.

As to `Cc1cccc(C)c1-c1cc2nc(n1)NS(=O)(=O)c1cccc(c1)C(=O)N([C@H]1C[C@@H](N3CCOC3=O)C1)[C@H](CC(C)(C)C)CO2` (stereo in doubt) [Compound 251], the “Ent. B Max Activity (%)” value (Table 10) is “+++ (+++ is >60%)”. For the same compound, the EC50 under setting [1] is less than 1000 nM.

For the compound `Cc1cccc(C)c1-c1cc2nc(n1)NS(=O)(=O)c1cccc(c1)C(=O)N([C@H]1C[C@@H](NC(C)C)C1)[C@H](CC(C)C)CO2` [Compound 367], the “Ent. B Max Activity (%)” value (Table 9) was “+++ (+++ is >60%)”. Also, the EC50 (Table 9, read-out: Ent. B EC50) is less than 1000 nM.

Turning to `Cc1cccc(C)c1-c1cc2nc(n1)NS(=O)(=O)c1cccc(c1)C(=O)N(C1CC3(CCN(C(=O)CO)CC3)C1)[C@H](CC(C)C)CO2` [Compound 25, (11R)-6-(2,6-Dimethylphenyl)-12-[7-(2-hydroxyacetyl)-7-azaspiro[3.5]nonan-2-yl]-11-isobutyl-2,2-dioxo-9-oxa-2λ^6-thia-3,5,12,19-tetrazatricyclo[12.3.1.14,8]nonadeca-1(18),4(19),5,7,14,16-hexaen-13-one], the “Ent. B Max Activity (%)” value (Table 9) is on record as “+++ (+++ is >60%)”. Besides, the half-maximal effective concentration (EC50) (Table 9, read-out: Ent. B EC50) is less than 1000 nM.

On to `Cc1cccc(C)c1-c1cc2nc(n1)NS(=O)(=O)c1cccc(c1)C(=O)N(C1CC3(COC(=O)N3C)C1)[C@H](CC(C)(C)C)CO2` (single isomer, unassigned) [Compound 177], for which the “Ent. B Max Activity (%)” value (Table 10) is given as “++ (++ is 30-60%)”. Besides, under setting [1], the half-maximal effective concentration (EC50) was less than 1000 nM.

Consider `Cc1cccc(C)c1-c1cc2nc(n1)NS(=O)(=O)c1cccc(c1)C(=O)N(C1CC3(CCN(CCOC(C)C)CC3)C1)[C@H](CC(C)(C)C(F)(F)F)CO2` [Compound 189, (11R)-6-(2,6-dimethylphenyl)-12-{7-[2-(propan-2-yloxy)ethyl]-7-azaspiro[3.5]nonan-2-yl}-11-(3,3,3-trifluoro-2,2-dimethylpropyl)-9-oxa-2λ^6-thia-3,5,12,19-tetraazatricyclo[12.3.1.14,8]nonadeca-1(17),4(19),5,7,14(18),15-hexaene-2,2,13-trione], for which the “Ent. B Max Activity (%)” value (Table 9) is “+++ (+++ is >60%)”. Besides, for the setting “Table 9, read-out: Ent. B EC50”, the EC50 is less than 1000 nM.

Take `Cc1cccc(C)c1-c1cc2nc(n1)NS(=O)(=O)c1cccc(c1)C(=O)N(C1CC3(C1)CN(C(=O)OC(C)C)C3)[C@H](CC1(C(F)(F)F)CC1)CO2` [Compound 133, Propan-2-yl 6-[(11R)-6-(2,6-dimethylphenyl)-2,2,13-trioxo-11-{[1-(trifluoromethyl)cyclopropyl]methyl}-9-oxa-2λ^6-thia-3,5,12,19-tetraazatricyclo[12.3.1.14,8]nonadeca-1(17),4,6,8(19),14(18),15-hexaen-12-yl]-2-azaspiro[3.3]heptane-2-carboxylate]: the “Ent. B Max Activity (%)” value (Table 9) is recorded as “+++ (+++ is >60%)”. For the same compound, the half-maximal effective concentration (EC50) (Table 9, read-out: Ent. B EC50) is less than 1000 nM.

In the case of `Cc1cccc(C)c1-c1cc2nc(n1)NS(=O)(=O)c1cccc(c1)C(=O)N(C1CC(C(=O)N3CCOCC3)C1)[C@H](CC(C)C)CO2` (some centres unmarked) [Compound 307], the “Ent. B Max Activity (%)” value was “+++ (+++ is >60%)”. Moreover, the EC50 (read-out: Ent. B EC50) is less than 1000 nM.

For the compound `Cc1cccc(C)c1-c1cc2nc(n1)NS(=O)(=O)c1cccc(c1)C(=O)N(C1CC3(CCN(C(=O)COC(C)C)CC3)C1)[C@H](CC(C)C)CO2` [Compound 458], for the setting “Table 9”, the “Ent. B Max Activity (%)” value is listed as “+++ (+++ is >60%)”. Further, for the setting “Table 9, read-out: Ent. B EC50”, the 50% effective concentration (EC50) is less than 1000 nM.

As to `Cc1cccc(C)c1-c1cc2nc(n1)NS(=O)(=O)c1cccc(c1)C(=O)N([C@H]1C[C@@H](N3CCOCC3)C1)[C@H](CC(C)C)CO2` [Compound 387], the “Ent. B Max Activity (%)” value (Table 9) is “+++ (+++ is >60%)”. Moreover, the EC50 (Table 9, read-out: Ent. B EC50) was less than 1000 nM.

Regarding `Cc1cccc(C)c1-c1cc2nc(n1)NS(=O)(=O)c1cccc(c1)C(=O)N(C1CC3(CC3)C1)C(CC(C)(C)C(F)(F)F)CO2` (centres unmarked) [Compound 217], the “Ent. B Max Activity (%)” value was “+++ (+++ is >60%)”. In addition, the concentration giving a half-maximal response (EC50) (read-out: Ent. B EC50) is less than 1000 nM.

`Cc1cccc(C)c1-c1cc2nc(n1)NS(=O)(=O)c1cccc(c1)C(=O)N(C1CC(N(C)CCC(C)(C)C)C1)[C@H](CC(C)C)CO2` (stereo partly drawn) [Compound 69, (11R)-12-[3-[3,3-dimethylbutyl(methyl)amino]cyclobutyl]-6-(2,6-dimethylphenyl)-11-isobutyl-2,2-dioxo-9-oxa-2λ^6-thia-3,5,12,19-tetrazatricyclo[12.3.1.14,8]nonadeca-1(18),4(19),5,7,14,16-hexaen-13-one]: the “Ent. B Max Activity (%)” value (Table 9) is listed as “+++ (+++ is >60%)”. Also, the EC50 (Table 9, read-out: Ent. B EC50) was less than 1000 nM.

Take `Cc1cccc(C)c1-c1cc2nc(n1)NS(=O)(=O)c1cccc(c1)C(=O)N(C1CC(NC(=O)OC(C)C)C1)[C@H](CC1(C(F)(F)F)CC1)CO2` (single isomer, unassigned) [Compound 60]: for the setting “Table 9”, the “Ent. B Max Activity (%)” value was “+++ (+++ is >60%)”. Moreover, the EC50 (Table 9, read-out: Ent. B EC50) was less than 1000 nM.

With `CC(=O)N1CCC2(CC1)CC(N1C(=O)c3cccc(c3)S(=O)(=O)Nc3nc(cc(-c4c(C)cccc4C)n3)OC[C@H]1CC(C)(C)C(F)(F)F)C2` [Compound 420], the “Ent. B Max Activity (%)” value (Table 9) was “+++ (+++ is >60%)”. Besides, where the note is “Table 9, read-out: Ent. B EC50”, the EC50 is less than 1000 nM.

Regarding `Cc1cccc(C)c1-c1cc2nc(n1)NS(=O)(=O)c1cccc(c1)C(=O)N(C1CC3(C1)CC(C(C)(C)O)C3)[C@H](CCC(C)(C)C)CO2` (single isomer, unassigned) [Compound 9], the “Ent. B Max Activity (%)” value (Table 10) is given as “+++ (+++ is >60%)”. Besides, the EC50 under setting [1] is less than 1000 nM.
